Results on 19 compounds are retold here after patent EP4551202B1, “NAPHTHAZARIN DERIVATIVES FOR TREATMENT OF ONYCHOMYCOSIS” (Christian-Albrechts-Universität zu Kiel, priority 2022, dated 2024).

Read-outs that look alike come from different tables or passages of the source.

The nature of series [1]: Migration into hoof plate from lacquer, Raman spectroscopy of cross-sections. The format is in vitro ADME, bovine. Conditions: 5 days. The procedure:
As a further analysis, a bovine hoof plate, 2 mm thickness, was arranged on water-saturated cotton gauze, and pharmaceutical compound was deposited on the opposite surface of the hoof plate. This arrangement was incubated under static conditions at room temperature for 5 days. The pharmaceutical compound was used at 5 wt.-% in a preliminary formulation of 12.5 wt.-% Eudragit RL PO, 60 wt.-% ethanol, 15 wt.-% ethyl acetate, 5 wt.-% butyl acetate, 2.5 wt.-% triacetin, which formulation should mimic the Loceryl lacquer. For comparison, the topic antimycotics amorolfin in Loceryl lacquer and ciclopirox in Ciclopoli were used in parallel.
After the incubation for 5 d, the lacquer compositions were carefully removed and cross-sections from the hoof plates were made. […] This pattern of measurement points, each at a depth greater by 10 µm, up to a depth of at least 100 µm, was used for Raman spectroscopy for presence of pharmaceutical compound.

Series [2] concerns Trichophyton rubrum I/95 (patient isolate). Description: Anti-mycotic activity assay in pathogen suspension (optical density at 600 nm). Format: cell-based. Conditions: light or radiation study, read-out: Tru IC50 with irradiation. The procedure:
(§1) For determining the IC50 of the anti-mycotic activity of compounds, the human pathogen Candida albicans, strain DSM 1386, or clinical isolates of Trichophyton rubrum obtained from patient samples were used.
Trichophyton rubrum I/95 (patient isolate) was cultivated for 1 week on GPY (0.1% glucose, 0.05% petone, 0.01 yeast extract, 1.5% agar) at 28°C. A suspension of 5x10^4 spores/ml in M186 (1% glucose, 0.5% peptone from soybeans, 0.3% yeast extract, 0.3% malt extract) was prepared and added to each well of a microplate containing one of the pharmaceutical compounds, which were pipetted in triplicates for a final concentration of […] and 100 µM. The wells were irradiated using the custom-made light source with a peak wavelength of 519 nm. Handling of the test compounds and well plates took place in a darkened room equipped with a red-light LED to protect them from green light. After incubation for 72 h at 28 °C and 120 rpm the optical density at 600 nm was measured using the microplate reader Tecan Infinite M200.

Series [3] relates to Candida albicans, strain DSM 1386. Briefly: Anti-mycotic activity assay in pathogen suspension (resazurin fluorescence). The format is cell-based. As for the experimental part: as §1
Candida albicans DSM 1386 was cultivated overnight in medium M186/3 (3.3 % glucose, 0.16 % peptone from soybeans, 0.1% yeast extract, 0.1 % malt extract). Test samples were added in triplicates to a 96-well plate for a final assay concentration of 10 µM and 100 µM of pharmaceutical compounds. 200 µl of the yeast was added to each well after diluting the overnight culture to an optical density (600 nm) of 0.03. […] Handling of the test compounds and well plates took place in a darkened room equipped with red-light LEDs to protect them from green light. Microplates were incubated for 5 h at 28 °C on a shaker at 200 rpm. Subsequently, 10 µl resazurin solution (0.3 mg/ml in phosphate buffer) was added to each well and the microplates were incubated again for 30 min before measuring fluorescence (560/590 nm) using a microplate reader (Tecan Infinite M200, Tecan, Männedorf, Switzerland). Nystatin was used as positive control.

The next series concerns C. albicans. Briefly: Anti-mycotic activity assay from nail (infected nail model, cow horn membranes). Format: cell-based.
In series [4] the test system is Trichophyton rubrum I/95 (patient isolates). Described as above. The following applies: for growth of T. rubrum in cow horn membrane: 15 µL/membrane; for diffusion of the compound into the supporting agar: from cow horn membrane, infected nail model. As for the experimental part: For testing the effect of the pharmaceutical compounds in a nail, compounds were applied as a solution of 5 mg/ml or 10 mg/ml in nitrocellulose-based cosmetic nail lacquer, diluted 1: 1 with ethyl acetate, onto cow horn membranes representing nail.
Trichophyton rubrum I/95 (patient isolates) was cultivated for 1-3 weeks on GPY (0.1 % glucose, 0.05 % peptone, 0.01 yeast extract, 1.5 % agar) at 28°C. For the infected nail model, petri dishes with M186 agar (1% glucose, 0.5% peptone from soybeans, 0.3% yeast extract, 0.3% malt extract, 1.5 % agar, supplemented with 100 U/ml penicillin and […]) where inoculated with the pathogen using sterile cotton swabs. Afterwards autoclaved cow horn membranes (in DPBS-buffer solution, 100 µm thick, 8 mm in diameter) where put onto the agar (5 per petri dish) followed by incubation for 48 h at 29 °C. […] The formulations were applied to 15 µL/membrane to the cow horn membranes using an Eppendorf pipette. After incubation for another 24 h four membranes of each type (control, vehicle, 5 mg/ml or 10 mg/ml deoxyshikonin) were transferred onto fresh petri dishes with the surface to which the formulation was applied now facing the agar. […] Afterwards formulations were applied (15 µL/membrane) onto the untreated side of the membranes (facing upwards), they were allowed to dry and were irradiated again for 5 min (2x). The dishes were incubated for 24 h at 29 °C and irradiated again for 5 min (2x). After 7 days of incubation at 29 °C the dishes were evaluated. Anytime handling the compounds and the agar plates after application of the formulations the ambient light was turned off and a red-light LED was used to protect them from any activating light source.

In series [5] the test system is Trichophyton rubrum I/95 (patient isolate). Briefly: Anti-mycotic activity assay in pathogen suspension (optical density at 600 nm). Format: cell-based. The following applies: light or radiation study; antimycotic activity against Trichophyton rubrum; without irradiation (dark); read-out: Tru IC50 without irradiation.
The nature of series [6]: Comparison test of antimycotic effect upon irradiation. The format is cell-based.
[7] abbreviates: antimycotic activity against Trichophyton rubrum, with irradiation, peak wavelength 519 nm.
Where [8] appears, read: DSM1386, light or radiation study, antimycotic activity against Candida albicans, with irradiation, peak wavelength 519 nm, read-out: Ca IC50 with irradiation.
The mark [9] stands for this setting: with irradiation at 519 nm, 5 mg/ml or 10 mg/ml in diluted nitrocellulose-based nail lacquer, evaluated after 7 days.
Setting [10] is: without irradiation, compound in diluted nitrocellulose-based nail lacquer.
[11] abbreviates: 5 wt.-% in preliminary Eudragit RL PO lacquer formulation, bovine hoof plate 2 mm, room temperature, one topical application.
[12] abbreviates: Candida albicans, DSM1386, light or radiation study, antimycotic activity against Candida albicans, with irradiation, peak wavelength 519 nm, read-out: Ca IC50 with irradiation.
[13] abbreviates: antimycotic activity against Candida albicans, with irradiation, peak wavelength 519 nm, read-out: Ca IC50 with irradiation.

In the case of `CCC(C)(C)c1ccc(CC(C)CN2C[C@@H](C)O[C@@H](C)C2)cc1` (stereo partly shown) [amorolfin], the “depth of migration into the keratin cross-section” value (shortened to “depth”) in series [1] (commercial lacquers (amorolfin in Loceryl lacquer, ciclopirox in Ciclopoli), bovine hoof plate 2 mm, room temperature) is “could not be detected inside the keratin cross-section”.
In the case of `CC1=CC(=O)c2c(O)ccc(O)c2C1=O` [BJ-18], the IC50 (commonly the midpoint of a concentration-inhibition curve) in series [2] (setting [7]) was 87.6 ± 65.4 nM; in series [3] (setting [8]) it was 2340 ± 846 nM; in series [3] (DSM1386, light or radiation study, antimycotic activity against Candida albicans, without irradiation (dark), read-out: Ca IC50 without irradiation), 10900 ± 4080 nM.
Regarding `CC(C)C1=CC(=O)c2c(O)ccc(O)c2C1=O` [BJ-28], the IC50 in series [2] (setting [7]) was 42.7 nM; in series [3] (setting [8]) it was 1040 ± 185 nM.
As to `O=C1C=C(c2ccccc2)C(=O)c2c(O)ccc(O)c21` [BJ-39], the half-inhibitory concentration (IC50) in series [2] (setting [7]) turned out to be 2.9 nM.
On to `O=C1C=CC(=O)c2c(O)ccc(O)c21` [Naphthazarin], for which the 50% inhibitory concentration (IC50) was determined as 353 ± 237 nM in series [2] (Trichophyton rubrum) and 632 ± 175 nM in series [3] (Candida albicans, DSM1386, light or radiation study, read-out: Ca IC50 with irradiation).
As to `NCC(=O)CCC(=O)O` [5-amino laevulinic acid], the “growth of C. albicans in cow horn membrane” value (“growth of C. albicans” below) in the series with C. albicans (with irradiation at 519 nm) and in the series on C. albicans (without irradiation) was “did not suppress growth” each time. In addition, the “growth of T. rubrum in cow horn membrane” value in series [4] (setting [9]) and in series [4] (setting [10]) was “did not suppress growth” in each case. In addition, the “depth” value in series [1] (setting [11]) is 30 µm.
Take `CC(C)=CCC(O)C1=CC(=O)c2c(O)ccc(O)c2C1=O` (stereo not shown) [Shikonin/ Alkannin]: the results for the half-maximal inhibitory concentration (IC50) in series [2] (setting [7]), in series [3] (setting [12]) and in series [5] were 781 ± 407 nM, 1480 nM and 10500 ± 6920 nM, respectively.
As to `CC(C)(C)C1=CC(=O)c2c(O)ccc(O)c2C1=O` [BJ-19], the IC50 was 244 ± 192 nM in series [2] (setting [7]) and 7650 ± 4480 nM in series [3] (setting [8]).
Take `C[C@@H]1[C@H](O)[C@@H](C)/C=C/C=C/CC/C=C/C=C/C=C/C=C/C(O[C@H]2O[C@H](C)[C@@H](O)[C@H](N)[C@@H]2O)CC2O[C@](O)(CC(O)C(O)CCC(O)CC(O)CC(O)CC(=O)O[C@H]1C)CC(O)C2C(=O)O` (stereo partly shown) [Nystatin, reference compound]: the IC50 in series [3] (setting [13]) was 1660 ± 886 nM; in series [3] (antimycotic activity against Candida albicans, without irradiation (dark), read-out: Ca IC50 without irradiation), 692 nM. Further, the “activity under irradiation compared with no irradiation” value in series [3] (under irradiation, believed to be caused by decomposition under irradiation) is given as “lower activity under irradiation”.
As for `Cc1cc(C2CCCCC2)n(O)c(=O)c1` [ciclopirox], the “depth” value in series [1] (bovine) was at most 40 µm.
On to `CN(C)C1=CC(=O)c2c(O)ccc(O)c2C1=O` [BJ-SK-Amin], for which the IC50 came to 3340 nM in series [2] (setting [7]), 1480 nM in series [3] (setting [8]) and 8140 nM in series [5].
As to `CC(C)=CCCC1=CC(=O)c2c(O)ccc(O)c2C1=O` [DOS, Deoxyshikonin], the “growth of T. rubrum in cow horn membrane” value in series [4] (setting [9]) is recorded as “effectively suppressed growth of T. rubrum”; in series [4] (setting [10]), “reduced compared to both controls but not suppressed”. Also, the IC50 in series [2] (setting [7]) stood at 32.2 ± 17.4 nM; in series [3] (setting [12]), 213 ± 54.7 nM; in series [3] (setting [13]) it was 213 ± 55 nM. Also, the “depth” value in series [1] (setting [11]) is given as “more than 50 µm”.
Consider `CC1=C(C)C(=O)c2c(O)ccc(O)c2C1=O` [BJ-27], for which the figures for the IC50 in series [2] (setting [7]) and in series [3] (setting [8]) were 321 ± 212 nM and 2750 ± 70 nM, respectively.
Take `CN(C)c1ccc2nc3ccc(=[N+](C)C)cc-3sc2c1` [methylene blue, reference compound]: the “growth of C. albicans” value with C. albicans (with irradiation at 519 nm) and with C. albicans (without irradiation) was “did not suppress growth” throughout. In addition, the “diffusion of the compound into the supporting agar” value in series [4] is “diffusion of methylene blue into the supporting agar”. The “growth of T. rubrum in cow horn membrane” value in series [4] (setting [9]) and in series [4] (setting [10]) was “did not suppress growth” in each case. In series [1] (bovine, 5 wt.-%), the “depth” value is 50 µm.
`CCC1=CC(=O)c2c(O)ccc(O)c2C1=O` [BJ-34]: the IC50 is 24.2 ± 20.6 nM in series [2] (setting [7]) and 715 ± 209 nM in series [3] (setting [8]).
For the compound `CCCCC1=CC(=O)c2c(O)ccc(O)c2C1=O` [BJ-36], the “growth of C. albicans” value in the series on C. albicans (with irradiation at 519 nm) is “effectively eliminated any growth”; in the series on C. albicans (without irradiation), “not effective in suppressing growth”. The “diffusion of the compound into the supporting agar” value in series [4] is reported as “without diffusion of the compound into the supporting agar”. The “growth of T. rubrum in cow horn membrane” value was “effectively eliminated any growth” in series [4] (setting [9]) and “not effective in suppressing growth” in series [4] (setting [10]). Further, the figures for the IC50 in series [2] (setting [7]) and in series [3] (setting [8]) were 1 ± 0.3 nM and 556 ± 355 nM, respectively. In series [1] (bovine, 5 wt.-%), the “depth” value was “more than 70 µm”.
Regarding `CCCC1=CC(=O)c2c(O)ccc(O)c2C1=O` [BJ-35], the IC50 in series [2] (setting [7]) amounted to 13 ± 12.2 nM; in series [3] (setting [8]) it was 599 ± 289 nM.
Turning to `O=C1C=C(O)C(=O)c2ccccc21` [2-hydroxy-1,4-naphthochinone], the “antimycotic effect upon irradiation” value in series [6] is “essentially no antimycotic effect”.
For `O=C1C=C(Nc2ccccc2)C(=O)c2c(O)ccc(O)c21` [BJ-49], the concentration for half-maximal inhibition (IC50) in series [2] (setting [7]) came to 352 ± 150 nM; in series [3] (setting [8]), 570 nM.
